Test results from patent US20170348306A1, “METHODS OF TREATING CANCER” (GLAXOSMITHKLINE LLC, priority 2011, published 2017).
Read-outs that look alike come from different tables or passages of the source.

Key:
[1] = target: EZH1 (Homo sapiens, UniProt Q92800); test: Inhibition of EZH1 methyltransferase activity; format: biochemical; conditions: read-out: Ki app
[2] = system: B-cell lymphoma cell lines; test: Cell proliferation assay (6 days, CellTiter-Glo), panel; format: cell-based; conditions: Homo sapiens, 144 h, read-out: growth IC50
Text: Thus, Example 22 and Table 6 better reflect the inhibition of HZH2 inhibitors on cell lines, e.g. the lymphoma cell lines. DLBCL cell lines were the most sensitive to EZH2 inhibition (FIG. 11a). […] Evaluation of GSK126 in additional lymphoma cell lines and extensive genomic and epigenomic characterization will be required to fully elucidate the determinants of sensitivity among lymphoma subtypes.
Biochemical assays utilized the 5-member PRC2 complex (human Flag-EZH2, EED, SUZ12, AEBP2, RbAp48) containing either WT or mutant EZH2, [^3H-]SAM and the indicated peptide substrate; reactions were incubated for 30 minutes. Global histone modification levels were determined by ELISA or western blot methods using antibodies specific for total histone H3, H3K27me1, H3K27me2, or H3K27me3. Cell proliferation and Caspase-3/7 activity were assessed using CellTiter-Glo and Caspase-Glo 3/7 (Promega), respectively. Gene expression profiling was conducted using Affymetrix Human Genome U133 Plus 2.0 microarrays. Differentially-expressed probe sets were determined by fitting the data to a linear model using the limma statistical package (http://www.bioconductor.org) and carrying out pair-wise contrasts of treated versus control. […] H3K27me3 ChIP reads were aligned using Bowtie (56). […] A custom PERL script was utilized to quantify the average basal H3K27me3 ChIP-seq tag density across gene sets. […]

[3] = system: KARPAS-422; test: Cell cycle analysis by flow cytometry; format: cell-based, human; conditions: 500 nM GSK126, 72 hours
Description: Cell cycle phase distribution was examined by flow cytometry. […] Cells were washed with PBS, pelleted in BD buffer solution, flash frozen, and stored at −80° C. CycleTest™ PLUS DNA reagent kit (Becton Dickinson, 340242) was used according to the manufacturer's instructions to prepare and stain nuclei with propidium iodide. Samples were evaluated using a FACSCalibur flow cytometer (Becton Dickinson) and data were analyzed using FlowJo software (Tree Star).

[4] = system: TXNIP and TNFRSF21 expression; test: qRT-PCR of H3K27me3-enriched genes; format: cell-based, human; conditions: 72 hours
Description: RNA (2.8 μg) was reverse transcribed with MultiScribe Reverse Transcriptase (Applied BioSystems) according to the manufacturer's recommendations. The resulting cDNA was diluted and used along with TaqMan gene expression assays (Applied Biosystems; GAPDH, Hs03929097_g1; TNFRSF21, Hs00205419_m1; TXNIP, Hs00197750_m1). TaqMan Gene Expression Master Mix (Applied BioSystems), and a ViiA 7 Real-Time PCR System (Applied BioSystems) according to the manufacturer's recommendations to quantify gene expression.

[5] = system: KARPAS-422 xenografts; test: Subcutaneous tumor xenograft efficacy study; format: in vivo, mice; conditions: for tumor response upon cessation of dosing / tumor growth: KARPAS-422 xenografts
Description: (§1) Biochemical assays utilized the 5-member PRC2 complex (human Flag-EZH2, EED, SUZ12, AEBP2, RbAp48) containing either WT or mutant EZH2, [^3H-]SAM and the indicated peptide substrate; reactions were incubated for 30 minutes. Global histone modification levels were determined by ELISA or western blot methods using antibodies specific for total histone H3, H3K27me1, H3K27me2, or H3K27me3. Cell proliferation and Caspase-3/7 activity were assessed using CellTiter-Glo and Caspase-Glo 3/7 (Promega), respectively. Gene expression profiling was conducted using Affymetrix Human Genome U133 Plus 2.0 microarrays. Differentially-expressed probe sets were determined by fitting the data to a linear model using the limma statistical package (http://www.bioconductor.org) and carrying out pair-wise contrasts of treated versus control. Significant probe sets were filtered for detection (log2 signal threshold of 8), an average fold-change >2 or <−2, or >1.5 or <−1.5, where indicated, with p-values adjusted for multiple testing correction by FDR (Benjamini Hochberg)<0.1. H3K27me3 ChIP reads were aligned using Bowtie (56). H3K27me3 enrichment peaks were identified using SICER (57) with optimized parameters. A custom PERL script was utilized to quantify the average basal H3K27me3 ChIP-seq tag density across gene sets. All in vivo studies were conducted after review by the Institutional Animal Care and Use Committee at GSK and in accordance with the GSK Policy on the Care, Welfare and Treatment of Laboratory Animals. GSK126 and vehicle were administered to mice intraperitoneally. Two-tailed t-tests were conducted assuming two samples of equal variance.
(§2) All studies were conducted after review by the Institutional Animal Care and Use Committee at GSK and in accordance with the GSK Policy on the Care, Welfare and Treatment of Laboratory Animals. […] Pfeiffer or KARPAS-422 cells (1×10^7) in 100% matrigel (BD Biosciences) were implanted subcutaneously in female beige SCID mice. Tumors were measured with calipers, block randomized according to tumor size into treatment groups. […] Mice were weighed and tumors measured with calipers twice weekly. For mouse pharmacokinetic studies, tumor and blood samples were harvested from euthanized mice at the indicated time. […] For pharmacodynamic studies, a portion of each tumor was frozen for H3K27me3/H3 ELISAs or placed in RNAlater (Ambion) for RNA isolation. For peripheral blood analyses, blood was harvested via cardiac puncture from euthanized, immunocompetent CD-1 mice (3 mice/group) on day 18. Blood was immediately placed into a Microtainer EDTA tube (BD) and gently mixed by inverting. A complete blood count analysis was conducted using the Advia 2120 hematology analyzer (Siemens Medical Solutions) using multi-species software as per manufacturer's instructions.

[6] = system: Pfeiffer xenografts; test: Subcutaneous tumor xenograft efficacy study; format: in vivo, mice; conditions: daily 50 mg/kg, intraperitoneal
Description: as §1, §2

[7] = Complete blood count analysis of peripheral blood; format: in vivo; conditions: immunocompetent CD-1 mice; twice weekly dosing over 18 days
Description: as §2

[8] = Tolerability in xenograft-bearing mice (body weight, behavior); format: in vivo
Description: as §2

[9] = target: T1, EZH2 (Homo sapiens, UniProt Q15910); test: Mechanism of GSK126 inhibition of EZH2 (IC50 at varied SAM and peptide); format: biochemical; conditions: SAM 0.1-15 μM; peptide 16-60 μM
T1 construct: TEV site (FLAG-tev-EZH2) (N); made in house; host or cells: Sf9 insect cells (baculovirus)
Text: The resulting IC50 values were plotted against the [SAM]/Km ratio or the [peptide]/Km ratio respectively.

T1 sequence (Q15910 whole entry): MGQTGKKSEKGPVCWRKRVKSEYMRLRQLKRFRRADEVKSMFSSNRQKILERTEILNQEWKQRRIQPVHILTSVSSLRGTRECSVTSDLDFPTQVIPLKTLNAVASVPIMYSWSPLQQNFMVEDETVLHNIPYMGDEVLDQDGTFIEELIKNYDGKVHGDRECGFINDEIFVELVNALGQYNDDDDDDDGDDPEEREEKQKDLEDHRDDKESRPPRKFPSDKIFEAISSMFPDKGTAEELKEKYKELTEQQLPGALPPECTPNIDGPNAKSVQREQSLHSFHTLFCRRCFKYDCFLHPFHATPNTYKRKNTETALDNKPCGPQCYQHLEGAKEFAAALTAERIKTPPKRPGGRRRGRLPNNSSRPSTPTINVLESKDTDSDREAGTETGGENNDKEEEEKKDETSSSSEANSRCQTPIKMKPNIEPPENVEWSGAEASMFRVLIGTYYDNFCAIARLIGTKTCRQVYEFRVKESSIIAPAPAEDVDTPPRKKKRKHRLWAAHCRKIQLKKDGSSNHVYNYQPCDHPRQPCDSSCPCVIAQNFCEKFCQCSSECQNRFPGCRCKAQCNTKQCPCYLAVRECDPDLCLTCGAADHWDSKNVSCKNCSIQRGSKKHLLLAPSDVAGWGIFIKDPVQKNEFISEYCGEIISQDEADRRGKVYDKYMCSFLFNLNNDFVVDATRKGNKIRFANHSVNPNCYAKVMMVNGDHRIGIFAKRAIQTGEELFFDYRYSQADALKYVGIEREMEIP
T1 sequence (O75530 whole entry partner): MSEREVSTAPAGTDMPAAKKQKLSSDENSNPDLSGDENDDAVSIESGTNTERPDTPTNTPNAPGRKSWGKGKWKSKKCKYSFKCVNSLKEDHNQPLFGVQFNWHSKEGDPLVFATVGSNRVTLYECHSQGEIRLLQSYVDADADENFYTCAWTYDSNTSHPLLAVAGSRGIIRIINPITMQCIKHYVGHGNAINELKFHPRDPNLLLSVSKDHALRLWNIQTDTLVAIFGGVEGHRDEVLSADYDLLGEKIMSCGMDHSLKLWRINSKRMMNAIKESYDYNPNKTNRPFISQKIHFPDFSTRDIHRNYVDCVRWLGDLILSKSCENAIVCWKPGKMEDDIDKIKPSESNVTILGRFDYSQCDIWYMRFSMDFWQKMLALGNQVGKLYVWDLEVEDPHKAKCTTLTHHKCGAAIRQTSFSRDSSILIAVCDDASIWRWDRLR
T1 sequence (Q15022 whole entry partner): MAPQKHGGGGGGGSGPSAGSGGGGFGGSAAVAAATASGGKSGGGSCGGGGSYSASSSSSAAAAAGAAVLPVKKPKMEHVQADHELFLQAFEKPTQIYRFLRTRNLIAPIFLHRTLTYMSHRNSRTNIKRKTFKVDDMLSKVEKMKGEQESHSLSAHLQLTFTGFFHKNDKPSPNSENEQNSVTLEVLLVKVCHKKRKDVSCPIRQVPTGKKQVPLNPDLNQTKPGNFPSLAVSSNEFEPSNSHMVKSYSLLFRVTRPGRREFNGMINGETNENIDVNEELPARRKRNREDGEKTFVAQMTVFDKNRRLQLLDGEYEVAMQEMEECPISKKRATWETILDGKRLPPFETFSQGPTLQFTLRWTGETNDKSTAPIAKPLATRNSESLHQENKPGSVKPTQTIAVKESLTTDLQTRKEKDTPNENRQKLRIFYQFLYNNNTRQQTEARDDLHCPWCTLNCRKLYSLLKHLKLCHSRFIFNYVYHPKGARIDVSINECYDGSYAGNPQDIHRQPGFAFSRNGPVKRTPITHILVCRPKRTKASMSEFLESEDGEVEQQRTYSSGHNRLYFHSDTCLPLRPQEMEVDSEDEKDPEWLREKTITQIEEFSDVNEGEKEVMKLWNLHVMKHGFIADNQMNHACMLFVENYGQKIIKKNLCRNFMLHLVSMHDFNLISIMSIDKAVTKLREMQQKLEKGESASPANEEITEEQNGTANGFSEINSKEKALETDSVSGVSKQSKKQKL
T1 sequence (Q09028 whole entry partner): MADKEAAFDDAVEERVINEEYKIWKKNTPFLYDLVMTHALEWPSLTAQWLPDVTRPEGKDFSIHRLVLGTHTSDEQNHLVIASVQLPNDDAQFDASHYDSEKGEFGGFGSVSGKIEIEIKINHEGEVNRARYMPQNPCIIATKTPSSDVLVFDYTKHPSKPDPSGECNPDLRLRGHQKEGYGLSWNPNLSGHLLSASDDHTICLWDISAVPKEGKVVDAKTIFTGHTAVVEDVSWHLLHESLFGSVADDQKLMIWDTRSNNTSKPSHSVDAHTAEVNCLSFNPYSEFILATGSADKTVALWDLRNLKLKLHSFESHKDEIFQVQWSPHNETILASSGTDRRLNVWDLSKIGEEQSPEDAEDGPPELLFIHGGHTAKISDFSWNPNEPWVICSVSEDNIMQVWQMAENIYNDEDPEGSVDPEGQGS
T1 sequence (Q6ZN18 1-503 partner limits assumed): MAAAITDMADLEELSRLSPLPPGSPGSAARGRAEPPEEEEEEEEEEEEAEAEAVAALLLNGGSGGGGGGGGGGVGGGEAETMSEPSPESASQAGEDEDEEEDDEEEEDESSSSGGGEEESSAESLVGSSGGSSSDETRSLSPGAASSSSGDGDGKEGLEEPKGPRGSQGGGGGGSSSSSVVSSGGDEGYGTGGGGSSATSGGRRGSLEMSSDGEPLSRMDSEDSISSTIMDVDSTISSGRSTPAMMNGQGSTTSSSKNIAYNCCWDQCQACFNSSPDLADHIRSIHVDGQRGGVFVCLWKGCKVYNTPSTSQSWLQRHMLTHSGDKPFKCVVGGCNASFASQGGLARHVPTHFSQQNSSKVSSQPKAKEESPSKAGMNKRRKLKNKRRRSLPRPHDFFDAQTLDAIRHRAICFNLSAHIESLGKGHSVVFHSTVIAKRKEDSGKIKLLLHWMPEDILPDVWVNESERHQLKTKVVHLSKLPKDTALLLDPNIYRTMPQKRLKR
EZH1, sequence (Q92800 whole entry): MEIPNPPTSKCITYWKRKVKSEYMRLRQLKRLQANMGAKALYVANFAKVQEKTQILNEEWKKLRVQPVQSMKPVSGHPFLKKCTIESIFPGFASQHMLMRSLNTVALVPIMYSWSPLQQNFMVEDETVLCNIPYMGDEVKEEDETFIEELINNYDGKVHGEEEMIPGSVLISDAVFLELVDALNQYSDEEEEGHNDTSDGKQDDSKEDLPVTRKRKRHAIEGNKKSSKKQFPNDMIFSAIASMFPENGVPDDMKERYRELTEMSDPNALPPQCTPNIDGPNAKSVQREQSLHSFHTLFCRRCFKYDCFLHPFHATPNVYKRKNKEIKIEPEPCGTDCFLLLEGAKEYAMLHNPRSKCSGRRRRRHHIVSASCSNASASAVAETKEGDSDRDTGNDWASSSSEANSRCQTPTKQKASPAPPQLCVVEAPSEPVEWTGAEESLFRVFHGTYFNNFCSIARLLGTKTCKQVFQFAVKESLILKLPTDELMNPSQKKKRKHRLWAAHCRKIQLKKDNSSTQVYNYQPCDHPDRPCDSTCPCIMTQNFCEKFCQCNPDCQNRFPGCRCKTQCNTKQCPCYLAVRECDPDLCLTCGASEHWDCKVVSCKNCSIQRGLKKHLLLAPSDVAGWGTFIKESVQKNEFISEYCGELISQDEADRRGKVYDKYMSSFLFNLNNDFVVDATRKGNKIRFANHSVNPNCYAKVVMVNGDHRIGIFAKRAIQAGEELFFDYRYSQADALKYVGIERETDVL
EZH1, sequence (O75530 whole entry partner): as the sequence (O75530 whole entry partner) above
EZH1, sequence (Q15022 whole entry partner): as the sequence (Q15022 whole entry partner) above

## CC[C@H](C)n1cc(C)c2c(C(=O)NCc3c(C)cc(C)[nH]c3=O)cc(-c3ccc(N4CCNCC4)nc3)cc21 [GSK126]
[1]
  Ki: 0.089 µM
[2]; Burkitt (BL) and Hodgkin's (HL) lymphoma cell lines, with the exception of Jiyoye
  IC50: > 1.3 µM
[2]; B-cell, six of the seven most sensitive DLBCL cell lines, harboring Y641N, Y641F, or A677G EZH2 mutations
  IC50: 0.028 to 0.861 µM
[3]
  cells in G1: 77%
[4]; Pfeiffer and KARPAS-422, two H3K27me3-enriched genes
  lowest concentration with dose-responsive increases in gene expression: 25 nM
[4]; Toledo, up to 1 μM GSK126
  gene expression changes (qRT-PCR): no transcriptional changes
[5]; KARPAS-422 xenografts with large tumors, intermittent dosing, weekly or with 1 week drug holiday, all schedules
  tumor growth inhibition: 91-100%
[5]; 50 mg/kg QD group
  tumor response upon cessation of dosing: tumor stasis
[5]; 150 mg/kg QD group
  tumor response upon cessation of dosing: complete tumor eradication
[5]; 300 mg/kg twice/week group
  tumor response upon cessation of dosing: complete tumor eradication
[5]; daily 50 mg/kg, intraperitoneal
  tumor growth: complete tumor growth inhibition
[5]; higher dosing regimens
  tumor growth: marked tumor regression
[5]; mice bearing KARPAS-422 tumors
  survival of mice: statistically significant increased survival
[6]
  tumor growth: complete tumor growth inhibition
[7]
  complete blood count, blood cell types: no significant changes
[8]; doses and schedules examined, mice with xenografts
  tolerability: well tolerated
[8]; mice bearing Pfeiffer or KARPAS-422 xenografts
  body weight: little to no decrease in body weight
[9]
  mechanism of inhibition: competitive with SAM and non-competitive with peptide substrates
